Results from US6706740B2, “Fungicidal heterocyclic aromatic amides and their compositions, methods of use and preparation” (Dow AgroSciences LLC, priority 1999, dated 2004).
Where two headings read alike, the source gives them in different places.

Columns and labels:
[1] = tested on: Magnaporthe grisea (Pyricularia oryzae—PYRIOR); experiment: microbe, parasite or virus in culture; type: cell-based; settings: Pyricularia oryzae, read-out: PYRIOR in vitro Growth Inhibition
[2] = tested on: Phytophthora infestans (PHYTIN); experiment: microbe, parasite or virus in culture; type: cell-based; settings: Phytophthora infestans, read-out: PHYTIN in vitro Growth Inhibition
[3] = tested on: Leptosphaeria nodorum—LEPTNO; experiment: Glume Blotch of Wheat, in vivo whole plant, 24 Hour Protectant; settings: Leptosphaeria, control of fungal infection vs untreated plants, read-out: LEPTNO in vivo 1 Day Protectant
[4] = tested on: Stagonospora nodorum (Leptosphaeria nodorum—LEPTNO); experiment: In vitro fungal growth inhibition, Stagonospora nodorum (LEPTNO); type: cell-based; settings: Leptosphaeria, read-out: LEPTNO in vitro Growth Inhibition
[5] = tested on: Mycosphaerella graminicola (Septoria tritici—SEPTTR); experiment: In vitro fungal growth inhibition, Mycosphaerella graminicola (SEPTTR); type: cell-based; settings: Zymoseptoria tritici, read-out: SEPTTR in vitro Growth Inhibition
Erysiphe graminis—ERYSGT = experiment: Powdery Mildew of Wheat, in vivo whole plant, 24 Hour Protectant; settings: Erysiphe, control of fungal infection vs untreated plants, read-out: ERYSGT in vivo 1 Day Protectant
[6] = tested on: Rhizoctonia solani (RHIZSO); experiment: microbe, parasite or virus in culture; type: cell-based; settings: Rhizoctonia solani, read-out: RHIZSO in vitro Growth Inhibition
Ustilago maydis (USTIMA) = experiment: microbe, parasite or virus in culture; type: cell-based; settings: Mycosarcoma maydis, read-out: USTIMA in vitro Growth Inhibition
[7] = tested on: Puccinia recondita—PUCCRT; experiment: Brown Rust of Wheat, in vivo whole plant, 24 Hour Protectant; settings: Puccinia, control of fungal infection vs untreated plants, read-out: PUCCRT in vivo 1 Day Protectant
[8] = tested on: Phytophthora infestans—PHYTIN; experiment: whole plant or invertebrate; type: in vivo; settings: Phytophthora, in Solanum lycopersicum, 24 h, read-out: PHYTIN in vivo 1 Day Protectant
Septoria tritici—SEPTTR = experiment: Leaf Blotch of Wheat, in vivo whole plant, 24 Hour Protectant; settings: Zymoseptoria tritici, 24 h, control of fungal infection vs untreated plants, read-out: SEPTTR in vivo 1 Day Protectant
[9] = 100 ppm spray, wheat, 24 hour protectant
[10] = 100 ppm spray, 24 hour protectant, wheat
[11] = wheat plants sprayed at 100 ppm, inoculated after 24 hours

How did the inhibition at 25 ppm [1] turn out when `COc1ccc(Oc2cccc(NC(=O)c3nccc(OC)c3O)c2)cc1` [Compound 432] was run?
Its inhibition at 25 ppm is less than 80%.

What about the inhibition at 25 ppm [2] of the same compound?
The inhibition at 25 ppm was less than 80%.

And the pest or weed control at 100 ppm [3, 9]?
Its pest or weed control at 100 ppm is 25 to 74%.

What about the inhibition at 25 ppm ([4]; 25 ppm in growth medium) of the same compound?
Its inhibition at 25 ppm is greater than 80%.

And the inhibition at 25 ppm ([5]; 25 ppm in growth medium)?
Its inhibition at 25 ppm is greater than 80%.

What about the pest or weed control at 100 ppm (Erysiphe graminis—ERYSGT; [9]) of the same compound?
The pest or weed control at 100 ppm was less than 25%.

And the inhibition at 25 ppm [6]?
The inhibition at 25 ppm was less than 80%.

And the inhibition at 25 ppm (Ustilago maydis (USTIMA))?
The inhibition at 25 ppm was less than 80%.

What about the pest or weed control at 100 ppm [7, 9] of the same compound?
The pest or weed control at 100 ppm was 25 to 74%.

And the pest or weed control at 100 ppm [8]?
The pest or weed control at 100 ppm was less than 25%.

What about the pest or weed control at 100 ppm (Septoria tritici—SEPTTR; [9]) of the same compound?
The pest or weed control at 100 ppm was less than 25%.

Which inhibition at 25 ppm [1] does the source give for `COc1ccnc(C(=O)N[C@H]2CC3OC2[C@H](C)[C@@H](OCc2ccccc2)[C@H]3C)c1O` (some centres unmarked) [Compound 321] here?
The inhibition at 25 ppm was less than 80%.

What about the inhibition at 25 ppm [2] of the same compound?
Its inhibition at 25 ppm is less than 80%.

And the pest or weed control at 100 ppm [3, 10]?
Its pest or weed control at 100 ppm is less than 25%.

And the inhibition at 25 ppm ([4]; 25 ppm in growth medium)?
The inhibition at 25 ppm was less than 80%.

And the inhibition at 25 ppm ([5]; 25 ppm in growth medium)?
The inhibition at 25 ppm was less than 80%.

And the pest or weed control at 100 ppm (Erysiphe graminis—ERYSGT; [10])?
The pest or weed control at 100 ppm was less than 25%.

And the inhibition at 25 ppm [6]?
Its inhibition at 25 ppm is less than 80%.

And the inhibition at 25 ppm (Ustilago maydis (USTIMA))?
Its inhibition at 25 ppm is less than 80%.

And the pest or weed control at 100 ppm [7, 10]?
Its pest or weed control at 100 ppm is 25 to 74%.

What about the pest or weed control at 100 ppm [8] of the same compound?
Its pest or weed control at 100 ppm is less than 25%.

And the pest or weed control at 100 ppm (Septoria tritici—SEPTTR; [10])?
Its pest or weed control at 100 ppm is less than 25%.

`COc1ccnc(C(=O)N[C@@H]2C[C@@H](C(F)(F)F)C[C@@H](C(F)(F)F)C2)c1OC(C)=O` [Compound 577] was tested. Which inhibition at 25 ppm [1] did it give?
Its inhibition at 25 ppm is less than 80%.

And the inhibition at 25 ppm [2]?
The inhibition at 25 ppm was less than 80%.

And the pest or weed control at 100 ppm [3, 11]?
Its pest or weed control at 100 ppm is 25 to 74%.

And the inhibition at 25 ppm ([4]; 25 ppm in the growth medium)?
The inhibition at 25 ppm was less than 80%.

What about the inhibition at 25 ppm ([5]; 25 ppm in the growth medium) of the same compound?
Its inhibition at 25 ppm is less than 80%.

And the pest or weed control at 100 ppm (Erysiphe graminis—ERYSGT; [11])?
The pest or weed control at 100 ppm was less than 25%.

And the inhibition at 25 ppm [6]?
Its inhibition at 25 ppm is less than 80%.

What about the inhibition at 25 ppm (Ustilago maydis (USTIMA)) of the same compound?
Its inhibition at 25 ppm is less than 80%.

And the pest or weed control at 100 ppm [7, 11]?
The pest or weed control at 100 ppm was less than 25%.

And the pest or weed control at 100 ppm [8]?
Its pest or weed control at 100 ppm is less than 25%.

What about the pest or weed control at 100 ppm (Septoria tritici—SEPTTR; [11]) of the same compound?
The pest or weed control at 100 ppm was 25 to 74%.

For `CCC1(C)OCC(NC(=O)c2nccc(OC)c2O)CO1` (centres unmarked) [Compound 314], which inhibition at 25 ppm [1] is on record?
The inhibition at 25 ppm was less than 80%.

What about the inhibition at 25 ppm [2] of the same compound?
The inhibition at 25 ppm was less than 80%.

And the pest or weed control at 100 ppm [3, 10]?
Its pest or weed control at 100 ppm is 25 to 74%.

And the inhibition at 25 ppm ([4]; 25 ppm in growth medium)?
The inhibition at 25 ppm was less than 80%.

What about the inhibition at 25 ppm ([5]; 25 ppm in growth medium) of the same compound?
The inhibition at 25 ppm was less than 80%.

What about the pest or weed control at 100 ppm (Erysiphe graminis—ERYSGT; [10]) of the same compound?
The pest or weed control at 100 ppm was less than 25%.

And the inhibition at 25 ppm [6]?
Its inhibition at 25 ppm is less than 80%.

What about the inhibition at 25 ppm (Ustilago maydis (USTIMA)) of the same compound?
The inhibition at 25 ppm was less than 80%.

What about the pest or weed control at 100 ppm [7, 10] of the same compound?
Its pest or weed control at 100 ppm is less than 25%.

What about the pest or weed control at 100 ppm [8] of the same compound?
The pest or weed control at 100 ppm was less than 25%.

What about the pest or weed control at 100 ppm (Septoria tritici—SEPTTR; [10]) of the same compound?
Its pest or weed control at 100 ppm is less than 25%.

For `COc1ccnc(C(=O)Nc2ccc(Oc3ccccc3C#N)cc2)c1O` [Compound 420], which inhibition at 25 ppm [1] is on record?
The inhibition at 25 ppm was less than 80%.

What about the inhibition at 25 ppm [2] of the same compound?
The inhibition at 25 ppm was less than 80%.

And the pest or weed control at 100 ppm [3, 9]?
Its pest or weed control at 100 ppm is 25 to 74%.

And the inhibition at 25 ppm ([4]; 25 ppm in growth medium)?
The inhibition at 25 ppm was less than 80%.

What about the inhibition at 25 ppm ([5]; 25 ppm in growth medium) of the same compound?
Its inhibition at 25 ppm is less than 80%.

And the pest or weed control at 100 ppm (Erysiphe graminis—ERYSGT; [9])?
Its pest or weed control at 100 ppm is less than 25%.

And the inhibition at 25 ppm [6]?
The inhibition at 25 ppm was less than 80%.

And the inhibition at 25 ppm (Ustilago maydis (USTIMA))?
Its inhibition at 25 ppm is less than 80%.

What about the pest or weed control at 100 ppm [7, 9] of the same compound?
Its pest or weed control at 100 ppm is less than 25%.

What about the pest or weed control at 100 ppm [8] of the same compound?
The pest or weed control at 100 ppm was less than 25%.

What about the pest or weed control at 100 ppm (Septoria tritici—SEPTTR; [9]) of the same compound?
Its pest or weed control at 100 ppm is less than 25%.

With `CCCCC1(C)CC(NC(=O)c2nccc(OC)c2O)CC(C)(C)C1` (centres unmarked) [Compound 253] as the compound, how does the inhibition at 25 ppm [1] read?
Its inhibition at 25 ppm is greater than 80%.

What about the inhibition at 25 ppm [2] of the same compound?
Its inhibition at 25 ppm is greater than 80%.

What about the pest or weed control at 100 ppm [3, 10] of the same compound?
The pest or weed control at 100 ppm was 25 to 74%.

And the inhibition at 25 ppm ([4]; 25 ppm in growth medium)?
The inhibition at 25 ppm was greater than 80%.

What about the inhibition at 25 ppm ([5]; 25 ppm in growth medium) of the same compound?
The inhibition at 25 ppm was greater than 80%.

And the pest or weed control at 100 ppm (Erysiphe graminis—ERYSGT; [10])?
Its pest or weed control at 100 ppm is less than 25%.

What about the inhibition at 25 ppm [6] of the same compound?
Its inhibition at 25 ppm is less than 80%.

What about the inhibition at 25 ppm (Ustilago maydis (USTIMA)) of the same compound?
The inhibition at 25 ppm was less than 80%.

And the pest or weed control at 100 ppm [7, 10]?
The pest or weed control at 100 ppm was 25 to 74%.

What about the pest or weed control at 100 ppm [8] of the same compound?
The pest or weed control at 100 ppm was less than 25%.

And the pest or weed control at 100 ppm (Septoria tritici—SEPTTR; [10])?
The pest or weed control at 100 ppm was 25 to 74%.

Which inhibition at 25 ppm [1] does the source give for `O=C(Nc1ccc(Oc2cccc(C(F)(F)F)c2)cc1)c1cscc1O` [Compound 555] here?
Its inhibition at 25 ppm is greater than 80%.

And the inhibition at 25 ppm [2]?
The inhibition at 25 ppm was greater than 80%.

And the pest or weed control at 100 ppm [3, 11]?
Its pest or weed control at 100 ppm is 25 to 74%.

And the inhibition at 25 ppm ([4]; 25 ppm in the growth medium)?
Its inhibition at 25 ppm is greater than 80%.

What about the inhibition at 25 ppm ([5]; 25 ppm in the growth medium) of the same compound?
The inhibition at 25 ppm was greater than 80%.

What about the pest or weed control at 100 ppm (Erysiphe graminis—ERYSGT; [11]) of the same compound?
Its pest or weed control at 100 ppm is less than 25%.

What about the inhibition at 25 ppm [6] of the same compound?
The inhibition at 25 ppm was greater than 80%.

What about the inhibition at 25 ppm (Ustilago maydis (USTIMA)) of the same compound?
Its inhibition at 25 ppm is less than 80%.

And the pest or weed control at 100 ppm [7, 11]?
The pest or weed control at 100 ppm was less than 25%.

What about the pest or weed control at 100 ppm [8] of the same compound?
The pest or weed control at 100 ppm was less than 25%.

What about the pest or weed control at 100 ppm (Septoria tritici—SEPTTR; [11]) of the same compound?
The pest or weed control at 100 ppm was 25 to 74%.
